Measurements taken from the NIST ThermoML archive (doi:10.1021/je200373q).

Experiment: xn = mol fraction of the nth substance listed
Details: 101 kPa, Liquid, Vibrating tube method

CCCCC [pentane] + CCCCCCCCC
mass density [kg/m3]
Details	x1 = 0.1034	x1 = 0.205	x1 = 0.3028	x1 = 0.4006	x1 = 0.5016	x1 = 0.5988	x1 = 0.6992	x1 = 0.7993	x1 = 0.8993
273.15 K	727.17	721.15	714.81	707.86	700	691.84	682.27	672.39	659.26
278.15 K	723.31	717.24	710.84	703.82	695.88	687.64	677.96	667.97	654.69
283.15 K	719.43	713.31	706.84	699.75	691.73	683.4	673.62	663.51	650.07
288.15 K	715.53	709.35	702.82	695.66	687.56	679.14	669.25	659.01	645.41
293.15 K	711.62	705.38	698.79	691.54	683.36	674.84	664.84	654.47	640.71
298.15 K	707.69	701.39	694.73	687.41	679.13	670.52	660.39	649.88	635.96
303.15 K	703.75	697.38	690.65	683.24	674.87	666.16	655.91	645.26	631.15
308.15 K	699.78	693.35	686.54	679.05	670.58	661.76	651.39	640.58	626.28
313.15 K	695.79	689.3	682.41	674.83	666.26	657.33	646.82	635.85	621.36
318.15 K	691.78	685.21	678.25	670.58	661.9	652.86	642.21	631.07	616.37
323.15 K	687.74	681.1	674.06	666.29	657.51	648.34	637.54	626.24	–
328.15 K	683.68	676.97	669.83	661.97	653.07	643.78	632.82	621.34	–
333.15 K	679.6	672.8	665.58	657.61	648.6	639.17	628.05	616.38	–
338.15 K	675.48	668.6	661.28	653.21	644.08	634.51	–	–	–
343.15 K	671.34	664.37	656.96	648.78	–	–	–	–	–
348.15 K	667.16	660.1	652.59	644.3	–	–	–	–	–
353.15 K	662.95	655.79	648.19	639.79	–	–	–	–	–
358.15 K	658.7	651.45	643.74	–	–	–	–	–	–
363.15 K	654.42	647.07	639.25	–	–	–	–	–	–
